{
  "source": "patent US20250179167A1",
  "about": "“IL-6 INHIBITOR AS TREATMENT FOR NEPHROPATHY” (YALE UNIVERSITY, priority 2022, published 2025)",
  "key": {"diabetic CD-1 mice": {"test_system": "diabetic CD-1 mice", "assay": "Plasma cytokine array (Luminex) in diabetic CD-1 mice with and without Wnti treatment", "assay_type": "in vivo, mouse", "experimental": "Plasma cytokines and chemokines were measured in diabetic CD-1 mice with and without Wnti treatment by using a cytokine array analysis (Luminex). n=5 biologically independent mice/group. Data are mean±SEM. Student's-test (unpaired two-tailed) was used for analysis of statistical significance. Significance—*p<0.05. In one experiment, male mice were randomized to one of 4 groups sixteen weeks after induction of diabetes: (i) untreated, (ii) fenofibrate (100 mg/kg), (iii) simvastatin (40 mg/kg), or (iv) Wnt inhibitor (LGK974; 5 mg/kg). In each case, mice were treated for 4 weeks and compared to untreated diabetic CD-1 mice. In another experiment, male diabetic CD-1 mice were randomized into one of 3 groups: (i) untreated (vehicle), (ii) etomoxir (20 mg/kg) or (iii) C75 (15 mg/kg); in each case mice were treated (IP) three times/week for a total 4 weeks."}, "control and GR^ECKO mice": {"test_system": "control and GR^ECKO mice", "assay": "Wnt inhibitor (LGK974) treatment in nondiabetic and diabetic control and GR^ECKO mice", "assay_type": "in vivo, mouse", "experimental": "(FIG. 5A) Schematic diagram showing the treatment protocol of Wnt inhibition in diabetic control and GR^ECKO mice. (FIG. 5B) Physiological parameters including body weight, blood glucose and kidney weight/body weight were analyzed. N=6 biologically independent mice/group combined from two experiments. (FIG. 5C) Masson trichrome, Sirius red and PAS staining as well as immunohistochemical analysis of β-catenin levels in the kidneys of wnti-treated diabetic control and GR^ECKO mice. Representative images are shown; original magnification 300×. Relative area of fibrosis (%) and relative collagen deposition (%) were measured using the ImageJ program. N=8 biologically independent mice/group combined from three experiments were analyzed. Scale bar 50 μm. Data are mean SEM. For all panels one-way ANOVA with Tukey post-test was used for analysis of statistical significance. Significance—*p<0.05, **p<0.01, ***p<0.001.\nPhysiological parameters including body weight, blood glucose, and kidney weight/body weight are shown. n=7 biologically independent mice/group combined from two experiments were analyzed. Data are mean±SEM. One-way Anova with Tukey multiple comparison post hoc test was used to calculate statistical significance.\nFIGS. 27A-27B Histological analysis of kidneys from Wnt inhibitor-treated nondiabetic control and GR^ECKO mice. (FIG. 27A) Masson trichrome staining (MITS) and Sirius red staining in Wnt inhibitor-treated nondiabetic control and GR^ECKO mice. Representative images are shown; original magnification 200×. Area of fibrosis (%) and relative collagen deposition (%) were measured using the ImageJ program. N=5 biologically independent mice/group were analyzed. Data are mean±SEM. Scale bar 50 μm. (FIG. 27B) Immunohistochemical analysis of -catenin expression in the kidneys of Wnt inhibitor-treated nondiabetic control and GR^ECKO mice. Scale bar 30 μm. n=6 biologically independent mice/group combined from two independent experiments were analyzed. Representative images are shown; original magnification 300×. One-way Anova with Tukey multiple comparison post hoc test was used to calculate statistical significance. Significance—*p<0.05, **p<0.01, ***p<0.001.\nImmunohistochemical analysis of Snail1, PPAR. and HIF1. expression in the Wnti-treated and untreated control, and GR^ECKO mice. Scale bar 50 μm. n=7 biologically independent mice/group combined from three independent experiments were analyzed. Representative images are shown; original magnification 200×.\nImmunofluorescence analysis of α-SMA/CD31/DAPI and E-cadherin/α-SMA/DAPI in kidneys of Wnt inhibitor-treated nondiabetic and diabetic mice. Top panel: α-SMA FITC labelled, CD31 rhodamine labelled and DAPI blue; Lower panel: E-Cadherin FITC-green labelled, α-SMA red rhodamine labelled and DAPI blue. Representative images are shown; original magnification 400×. Scale bar 50 μm. n=6 biologically independent mice/group combined from three independent experiments were analyzed. NC: non-diabetic control; DC: diabetic control; D: diabetic.\nTo determine whether Wnt inhibition could mitigate the renal fibrosis observed in diabetic GR^ECKO mice, a cohort of animals was treated with LGK974. At the age of 8 weeks, control and GR^ECKO mice were injected with STZ 50 mg/kg for five consecutive days. Sixteen weeks after injection, LGK974 was administered by oral gavage for eight additional weeks (FIG. 5A).\nAnimal Experimentation. All experiments were performed according to a protocol approved by the Institutional Animal Care and Use Committee at the Yale University School of Medicine and were in accordance with the National Institute of Health (NIH) Guidelines for the Care of Laboratory Animals Mice were housed at an ambient temperature of 68-79° F. with a humidity that ranged between 30%-70%. […]"}, "[1]": {"settings": "nondiabetic control mice or nondiabetic GR^ECKO, compared to untreated nondiabetic controls"}},
  "data": [
    {"smiles": "Cc1cc(-c2ncc(CC(=O)Nc3ccc(-c4cnccn4)cn3)cc2C)ccn1", "note": "[LGK974]", "values": [
      {"measurement": "plasma CCL4 level", "setting": "diabetic CD-1 mice", "value": "significantly suppressed"},
      {"measurement": "plasma CCL5 level", "setting": "diabetic CD-1 mice", "value": "increasing"},
      {"measurement": "plasma G-CSF level", "setting": "diabetic CD-1 mice", "value": "significantly suppressed"},
      {"measurement": "plasma IL-1β level", "setting": "diabetic CD-1 mice", "value": "significantly suppressed"},
      {"measurement": "plasma IL-6 level", "setting": "diabetic CD-1 mice", "value": "significantly suppressed"},
      {"measurement": "plasma IL-10 level", "setting": "diabetic CD-1 mice", "value": "significantly suppressed"},
      {"measurement": "plasma MCP-1 level", "setting": "diabetic CD-1 mice", "value": "significantly suppressed"},
      {"measurement": "plasma TNFα level", "setting": "diabetic CD-1 mice", "value": "significantly suppressed"},
      {"measurement": "level of EMT (E-cadherin/αSMA double positive cells)", "setting": "control and GR^ECKO mice; control and diabetic GR^ECKO mice", "value": "significantly reduced"},
      {"measurement": "kidney weight", "setting": "control and GR^ECKO mice; diabetic GR^ECKO and diabetic control mice", "value": "significant reduction"},
      {"measurement": "EndMT (CD31/αSMA double positive cells)", "setting": "control and GR^ECKO mice; diabetic GR^ECKO mice", "value": "less pronounced"},
      {"measurement": "relative area of fibrosis", "setting": "control and GR^ECKO mice; diabetic GR^ECKO mice", "value": "less pronounced, though still significant"},
      {"measurement": "relative collagen deposition", "setting": "control and GR^ECKO mice; diabetic GR^ECKO mice", "value": "less pronounced, though still significant"},
      {"measurement": "tubular damage", "setting": "control and GR^ECKO mice; diabetic GR^ECKO mice", "value": "less pronounced, though still significant"},
      {"measurement": "EndMT (CD31/αSMA double positive cells)", "setting": "control and GR^ECKO mice; diabetic control mice", "value": "significantly suppressed"},
      {"measurement": "relative area of fibrosis", "setting": "control and GR^ECKO mice; diabetic control mice", "value": "clearly improved"},
      {"measurement": "relative collagen deposition", "setting": "control and GR^ECKO mice; diabetic control mice", "value": "clearly improved"},
      {"measurement": "tubular damage", "setting": "control and GR^ECKO mice; diabetic control mice", "value": "clearly improved"},
      {"measurement": "expression of HIF1α", "setting": "control and GR^ECKO mice; kidneys of diabetic GR^ECKO", "value": "suppressed"},
      {"measurement": "expression of Snail1", "setting": "control and GR^ECKO mice; kidneys of diabetic GR^ECKO", "value": "suppressed"},
      {"measurement": "level of PPARα", "setting": "control and GR^ECKO mice; kidneys of diabetic GR^ECKO", "value": "significantly increased"},
      {"measurement": "renal fibrogenic phenotype", "setting": "control and GR^ECKO mice; [1]", "value": "did not result in any remarkable change"},
      {"measurement": "β-catenin level", "setting": "control and GR^ECKO mice; [1]", "value": "did not result in any remarkable change"}
    ]}
  ]
}
